From ChEMBL document CHEMBL4507291 (2021)

Tests used:
[1] = molecular target: T1, Serine/threonine-protein kinase BRSK1 (Homo sapiens) (UniProt Q8TDC3)
T1 sequence (whole entry): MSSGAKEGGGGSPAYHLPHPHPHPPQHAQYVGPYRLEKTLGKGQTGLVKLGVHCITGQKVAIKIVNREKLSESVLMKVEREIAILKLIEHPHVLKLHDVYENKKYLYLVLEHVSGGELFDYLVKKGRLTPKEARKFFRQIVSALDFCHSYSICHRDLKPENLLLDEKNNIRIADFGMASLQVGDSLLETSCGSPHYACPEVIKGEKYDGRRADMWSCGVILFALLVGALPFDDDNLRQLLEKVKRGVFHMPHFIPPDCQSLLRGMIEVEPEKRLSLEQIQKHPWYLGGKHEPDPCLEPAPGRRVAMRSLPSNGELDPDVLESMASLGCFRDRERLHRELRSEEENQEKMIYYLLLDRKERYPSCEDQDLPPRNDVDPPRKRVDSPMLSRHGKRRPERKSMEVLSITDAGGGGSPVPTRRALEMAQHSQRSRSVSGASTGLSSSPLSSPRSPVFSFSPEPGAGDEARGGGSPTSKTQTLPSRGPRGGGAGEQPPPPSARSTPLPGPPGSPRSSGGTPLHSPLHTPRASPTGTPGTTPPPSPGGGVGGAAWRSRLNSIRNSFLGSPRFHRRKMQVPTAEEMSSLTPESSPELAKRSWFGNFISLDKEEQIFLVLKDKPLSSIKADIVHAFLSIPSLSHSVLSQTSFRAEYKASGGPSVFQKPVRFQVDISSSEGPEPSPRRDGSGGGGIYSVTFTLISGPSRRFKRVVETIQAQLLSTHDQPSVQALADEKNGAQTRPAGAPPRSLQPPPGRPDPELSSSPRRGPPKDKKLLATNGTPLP

[2] = system: Receptor-type tyrosine-protein kinase FLT3 (Homo sapiens), P36888 [D835H]
[3] = system: Receptor-type tyrosine-protein kinase FLT3 (Homo sapiens), P36888 [K663Q]
[4] = molecular target: Serine/threonine-protein kinase ICK (Homo sapiens) (UniProt Q9UPZ9)
Chain of Serine/threonine-protein kinase ICK (Homo sapiens) (Q9UPZ9 whole entry): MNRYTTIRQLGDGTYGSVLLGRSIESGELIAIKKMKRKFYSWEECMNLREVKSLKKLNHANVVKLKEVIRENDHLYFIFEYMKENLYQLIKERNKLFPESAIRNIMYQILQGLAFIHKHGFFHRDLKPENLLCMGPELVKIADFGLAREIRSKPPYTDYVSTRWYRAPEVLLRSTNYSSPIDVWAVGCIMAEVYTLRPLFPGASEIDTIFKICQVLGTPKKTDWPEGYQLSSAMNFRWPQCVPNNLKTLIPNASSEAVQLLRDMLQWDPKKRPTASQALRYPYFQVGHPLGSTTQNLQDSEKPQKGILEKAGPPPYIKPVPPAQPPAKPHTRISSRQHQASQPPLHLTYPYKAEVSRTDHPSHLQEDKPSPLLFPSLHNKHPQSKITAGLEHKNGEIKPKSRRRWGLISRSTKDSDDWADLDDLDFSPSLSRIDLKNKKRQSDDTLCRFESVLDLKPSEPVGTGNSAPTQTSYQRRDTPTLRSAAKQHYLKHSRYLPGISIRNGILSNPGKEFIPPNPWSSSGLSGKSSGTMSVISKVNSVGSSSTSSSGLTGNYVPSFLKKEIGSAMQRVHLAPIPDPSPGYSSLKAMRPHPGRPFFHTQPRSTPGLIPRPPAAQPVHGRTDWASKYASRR

[5] = molecular target: Mitogen-activated protein kinase kinase kinase 4 (Homo sapiens) (UniProt Q9Y6R4)
Chain of Mitogen-activated protein kinase kinase kinase 4 (Homo sapiens) (Q9Y6R4 whole entry): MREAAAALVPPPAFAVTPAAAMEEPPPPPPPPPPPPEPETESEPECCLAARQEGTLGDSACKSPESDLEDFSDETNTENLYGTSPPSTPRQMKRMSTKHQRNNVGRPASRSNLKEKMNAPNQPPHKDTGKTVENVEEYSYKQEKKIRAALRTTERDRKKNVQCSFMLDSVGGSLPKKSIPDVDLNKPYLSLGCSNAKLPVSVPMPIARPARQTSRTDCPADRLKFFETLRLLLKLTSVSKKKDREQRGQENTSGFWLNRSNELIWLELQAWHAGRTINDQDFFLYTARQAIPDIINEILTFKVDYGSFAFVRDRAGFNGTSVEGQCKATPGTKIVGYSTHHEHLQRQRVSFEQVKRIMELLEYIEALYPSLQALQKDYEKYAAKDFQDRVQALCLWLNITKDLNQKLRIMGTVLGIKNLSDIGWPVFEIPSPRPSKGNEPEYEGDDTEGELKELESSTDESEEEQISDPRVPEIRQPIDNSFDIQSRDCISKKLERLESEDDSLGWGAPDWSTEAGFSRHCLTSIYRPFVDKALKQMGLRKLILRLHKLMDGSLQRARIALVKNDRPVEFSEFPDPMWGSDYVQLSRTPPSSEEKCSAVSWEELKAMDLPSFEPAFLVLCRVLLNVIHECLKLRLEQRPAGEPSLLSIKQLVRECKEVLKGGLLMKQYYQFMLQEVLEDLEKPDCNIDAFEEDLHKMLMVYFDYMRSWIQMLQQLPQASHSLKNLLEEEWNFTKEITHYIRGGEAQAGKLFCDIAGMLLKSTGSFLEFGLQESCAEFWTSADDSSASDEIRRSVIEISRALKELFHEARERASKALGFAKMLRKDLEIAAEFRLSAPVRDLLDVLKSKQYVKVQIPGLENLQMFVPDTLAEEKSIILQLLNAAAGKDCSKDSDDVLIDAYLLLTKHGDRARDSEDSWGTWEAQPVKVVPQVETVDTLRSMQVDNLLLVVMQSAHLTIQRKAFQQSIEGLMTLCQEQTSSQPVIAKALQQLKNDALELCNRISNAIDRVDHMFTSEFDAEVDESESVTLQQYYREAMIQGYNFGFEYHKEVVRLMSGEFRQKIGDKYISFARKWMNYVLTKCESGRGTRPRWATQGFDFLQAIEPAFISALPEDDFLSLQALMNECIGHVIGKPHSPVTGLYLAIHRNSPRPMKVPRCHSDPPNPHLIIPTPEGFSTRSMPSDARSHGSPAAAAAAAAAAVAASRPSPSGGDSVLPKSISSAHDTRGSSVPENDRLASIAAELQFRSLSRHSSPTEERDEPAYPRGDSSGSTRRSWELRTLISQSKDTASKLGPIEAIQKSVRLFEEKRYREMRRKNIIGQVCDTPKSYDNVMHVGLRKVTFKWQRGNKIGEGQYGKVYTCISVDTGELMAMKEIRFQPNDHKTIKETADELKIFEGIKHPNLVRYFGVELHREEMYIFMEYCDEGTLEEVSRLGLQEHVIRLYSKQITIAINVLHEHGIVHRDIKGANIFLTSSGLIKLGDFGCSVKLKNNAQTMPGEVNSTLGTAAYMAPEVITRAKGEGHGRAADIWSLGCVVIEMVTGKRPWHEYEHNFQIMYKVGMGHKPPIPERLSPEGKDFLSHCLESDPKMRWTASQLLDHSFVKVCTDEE

[6] = molecular target: MAP/microtubule affinity-regulating kinase 3 (Homo sapiens) (UniProt P27448)
Chain of MAP/microtubule affinity-regulating kinase 3 (Homo sapiens) (P27448 whole entry, looked up): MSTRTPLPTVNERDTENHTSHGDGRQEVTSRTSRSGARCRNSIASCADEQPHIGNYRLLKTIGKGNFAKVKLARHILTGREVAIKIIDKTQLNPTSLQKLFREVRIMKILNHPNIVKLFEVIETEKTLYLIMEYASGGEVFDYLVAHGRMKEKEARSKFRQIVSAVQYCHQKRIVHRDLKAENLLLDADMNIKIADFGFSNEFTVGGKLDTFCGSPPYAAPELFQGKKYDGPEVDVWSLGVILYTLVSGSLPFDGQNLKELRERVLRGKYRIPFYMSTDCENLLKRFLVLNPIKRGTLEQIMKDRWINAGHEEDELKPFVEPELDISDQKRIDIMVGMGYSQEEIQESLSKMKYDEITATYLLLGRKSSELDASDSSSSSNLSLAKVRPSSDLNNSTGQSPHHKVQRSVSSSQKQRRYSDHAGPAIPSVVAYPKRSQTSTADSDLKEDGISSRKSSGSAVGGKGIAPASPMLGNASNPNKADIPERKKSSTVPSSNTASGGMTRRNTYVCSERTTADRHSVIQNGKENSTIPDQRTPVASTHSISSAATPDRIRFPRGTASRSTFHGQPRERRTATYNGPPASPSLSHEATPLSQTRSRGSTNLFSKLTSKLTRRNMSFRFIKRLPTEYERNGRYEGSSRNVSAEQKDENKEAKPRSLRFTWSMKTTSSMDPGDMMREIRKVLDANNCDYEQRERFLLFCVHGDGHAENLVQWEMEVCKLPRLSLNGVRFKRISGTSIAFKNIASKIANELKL

[7] = molecular target: T2, Muscle, skeletal receptor tyrosine-protein kinase (Homo sapiens) (UniProt O15146)
T2 sequence (whole entry): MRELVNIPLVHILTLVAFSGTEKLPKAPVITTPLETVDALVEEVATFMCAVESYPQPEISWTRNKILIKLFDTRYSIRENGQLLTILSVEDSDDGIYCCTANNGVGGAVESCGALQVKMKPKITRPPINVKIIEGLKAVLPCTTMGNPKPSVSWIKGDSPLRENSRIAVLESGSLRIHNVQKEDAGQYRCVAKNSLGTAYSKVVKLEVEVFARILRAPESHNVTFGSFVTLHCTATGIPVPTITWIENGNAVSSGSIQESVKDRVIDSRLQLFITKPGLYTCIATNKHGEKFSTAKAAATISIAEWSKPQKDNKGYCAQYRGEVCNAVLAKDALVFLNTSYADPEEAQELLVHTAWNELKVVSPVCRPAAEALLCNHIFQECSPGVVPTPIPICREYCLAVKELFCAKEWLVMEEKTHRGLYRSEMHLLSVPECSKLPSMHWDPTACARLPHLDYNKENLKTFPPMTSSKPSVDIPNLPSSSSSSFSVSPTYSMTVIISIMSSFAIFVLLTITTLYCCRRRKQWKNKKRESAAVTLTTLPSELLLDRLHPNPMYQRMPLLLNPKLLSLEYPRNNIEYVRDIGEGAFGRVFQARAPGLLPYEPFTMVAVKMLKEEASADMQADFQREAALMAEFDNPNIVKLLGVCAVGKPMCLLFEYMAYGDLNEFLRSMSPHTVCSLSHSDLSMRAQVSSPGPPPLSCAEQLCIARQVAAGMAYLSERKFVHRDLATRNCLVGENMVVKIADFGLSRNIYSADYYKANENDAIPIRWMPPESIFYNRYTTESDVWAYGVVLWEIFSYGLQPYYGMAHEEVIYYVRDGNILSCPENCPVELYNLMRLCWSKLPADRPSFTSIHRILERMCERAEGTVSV

[8] = molecular target: Serine/threonine-protein kinase Nek5 (Homo sapiens) (UniProt Q6P3R8)
Chain of Serine/threonine-protein kinase Nek5 (Homo sapiens) (Q6P3R8 whole entry): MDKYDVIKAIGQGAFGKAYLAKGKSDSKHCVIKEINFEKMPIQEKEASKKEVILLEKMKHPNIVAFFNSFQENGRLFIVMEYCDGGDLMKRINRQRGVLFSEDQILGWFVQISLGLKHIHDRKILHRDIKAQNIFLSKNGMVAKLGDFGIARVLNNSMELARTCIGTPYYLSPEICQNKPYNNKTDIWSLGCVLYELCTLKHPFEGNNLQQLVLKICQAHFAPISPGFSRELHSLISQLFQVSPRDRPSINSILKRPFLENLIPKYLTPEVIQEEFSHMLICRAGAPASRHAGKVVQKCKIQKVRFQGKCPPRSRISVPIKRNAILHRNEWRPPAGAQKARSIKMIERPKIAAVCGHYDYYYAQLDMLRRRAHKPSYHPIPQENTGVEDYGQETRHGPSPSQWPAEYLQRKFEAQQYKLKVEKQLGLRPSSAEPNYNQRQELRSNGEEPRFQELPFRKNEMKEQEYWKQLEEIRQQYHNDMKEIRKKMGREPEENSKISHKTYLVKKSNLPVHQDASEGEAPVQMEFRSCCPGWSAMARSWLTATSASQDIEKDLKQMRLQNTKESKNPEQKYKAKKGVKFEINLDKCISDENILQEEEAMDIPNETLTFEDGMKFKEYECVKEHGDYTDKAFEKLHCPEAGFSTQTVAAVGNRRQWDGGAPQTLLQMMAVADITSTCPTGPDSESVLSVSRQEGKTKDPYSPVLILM

[9] = molecular target: SRSF protein kinase 3 (Homo sapiens) (UniProt Q9UPE1)
Chain of SRSF protein kinase 3 (Homo sapiens) (Q9UPE1 whole entry): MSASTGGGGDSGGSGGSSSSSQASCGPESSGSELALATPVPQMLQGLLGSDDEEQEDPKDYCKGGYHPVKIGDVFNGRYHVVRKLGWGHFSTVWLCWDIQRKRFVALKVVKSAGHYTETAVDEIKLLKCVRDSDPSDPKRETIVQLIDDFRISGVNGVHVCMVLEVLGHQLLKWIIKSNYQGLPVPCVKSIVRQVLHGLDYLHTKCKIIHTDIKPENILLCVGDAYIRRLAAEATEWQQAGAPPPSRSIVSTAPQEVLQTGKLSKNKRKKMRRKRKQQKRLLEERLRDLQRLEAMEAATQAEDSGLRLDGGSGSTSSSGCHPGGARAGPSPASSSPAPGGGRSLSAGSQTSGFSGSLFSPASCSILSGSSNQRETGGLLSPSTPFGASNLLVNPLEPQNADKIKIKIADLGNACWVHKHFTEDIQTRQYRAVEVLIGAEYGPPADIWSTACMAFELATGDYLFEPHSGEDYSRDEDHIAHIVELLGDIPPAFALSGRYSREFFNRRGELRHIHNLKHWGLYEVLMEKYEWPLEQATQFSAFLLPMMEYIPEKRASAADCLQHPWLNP

[10] = molecular target: Tyrosine-protein kinase SYK (Homo sapiens) (UniProt P43405)
[11] = molecular target: Wee1-like protein kinase (Homo sapiens) (UniProt P30291)
Chain of Wee1-like protein kinase (Homo sapiens) (P30291 whole entry, looked up): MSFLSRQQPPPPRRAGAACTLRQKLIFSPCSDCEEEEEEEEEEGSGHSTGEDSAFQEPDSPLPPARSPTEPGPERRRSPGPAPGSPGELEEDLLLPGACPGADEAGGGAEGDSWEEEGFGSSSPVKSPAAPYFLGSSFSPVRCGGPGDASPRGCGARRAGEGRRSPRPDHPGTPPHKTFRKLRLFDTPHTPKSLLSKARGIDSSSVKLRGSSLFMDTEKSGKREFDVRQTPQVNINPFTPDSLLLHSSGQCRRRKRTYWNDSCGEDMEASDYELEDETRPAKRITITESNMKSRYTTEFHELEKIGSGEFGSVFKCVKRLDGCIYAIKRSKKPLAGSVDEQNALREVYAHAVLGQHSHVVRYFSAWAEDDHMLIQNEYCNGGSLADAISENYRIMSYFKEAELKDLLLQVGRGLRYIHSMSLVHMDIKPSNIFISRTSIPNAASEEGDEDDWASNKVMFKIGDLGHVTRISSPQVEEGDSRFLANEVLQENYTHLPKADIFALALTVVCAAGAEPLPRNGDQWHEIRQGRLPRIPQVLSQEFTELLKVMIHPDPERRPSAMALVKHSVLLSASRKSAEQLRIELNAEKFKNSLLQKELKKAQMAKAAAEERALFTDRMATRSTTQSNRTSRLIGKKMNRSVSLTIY

[12] = molecular target: T3, Muscarinic acetylcholine receptor M4 (Homo sapiens) (UniProt P08173); conditions: Compound concentration 10.0 uM
T3 sequence (whole entry): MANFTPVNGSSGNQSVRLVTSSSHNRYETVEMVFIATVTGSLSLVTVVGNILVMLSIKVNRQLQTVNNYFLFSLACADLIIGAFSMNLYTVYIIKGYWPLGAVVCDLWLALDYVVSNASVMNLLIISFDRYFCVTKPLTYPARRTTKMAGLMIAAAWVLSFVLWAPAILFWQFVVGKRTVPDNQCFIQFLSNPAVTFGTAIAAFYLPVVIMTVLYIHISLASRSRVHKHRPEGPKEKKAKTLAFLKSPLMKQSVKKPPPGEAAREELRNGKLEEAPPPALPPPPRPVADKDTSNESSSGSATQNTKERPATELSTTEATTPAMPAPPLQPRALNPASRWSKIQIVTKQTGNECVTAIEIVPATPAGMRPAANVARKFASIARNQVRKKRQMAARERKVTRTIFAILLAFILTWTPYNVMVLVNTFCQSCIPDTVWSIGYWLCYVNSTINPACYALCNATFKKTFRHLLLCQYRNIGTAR

[13] = Compound concentration 100.0 nM
[14] = Compound concentration 1000.0 nM

C[C@@H]1CN(c2cc(-c3n[nH]c4ccc(OC5(C)CC5)cc34)ncn2)C[C@H](C)O1 [MLi-2]
inactive: residual activity [1, 13] 96% | residual activity [2, 13] 100% | residual activity [3, 13] 100% | residual activity [4, 13] 62% | residual activity [5, 13] 100% | residual activity [6, 13] 73% | residual activity [7, 13] 56% | residual activity [8, 13] 100% | residual activity [9, 13] 100% | residual activity [10, 13] 96% | residual activity [11, 13] 97% | inhibition [12] -4.79%

C[C@@H]1CN(c2cc(-c3nn(C)c4ccc(OC5(C)CC5)cc34)ncn2)C[C@H](C)O1 [MLi-2-NC]
inactive: residual activity [1, 14] 97% | residual activity [2, 14] 84% | residual activity [3, 14] 100% | residual activity [4, 14] 78% | residual activity [5, 14] 100% | residual activity [6, 14] 100% | residual activity [7, 14] 92% | residual activity [8, 14] 100% | residual activity [9, 14] 98% | residual activity [10, 14] 89% | residual activity [11, 14] 100% | inhibition [12] 10.6%
